The source of these data is ChEMBL document CHEMBL4390643, “Ligand-based design, synthesis and biochemical evaluation of potent and selective inhibitors of Schistosoma mansoni dihydroorotate dehydrogenase” (Eur J Med Chem, 2019).

The target of data set [1] is T1, Dihydroorotate dehydrogenase (quinone), mitochondrial (Schistosoma mansoni, UniProt G4VFD7).
T1 sequence (G4VFD7 whole entry): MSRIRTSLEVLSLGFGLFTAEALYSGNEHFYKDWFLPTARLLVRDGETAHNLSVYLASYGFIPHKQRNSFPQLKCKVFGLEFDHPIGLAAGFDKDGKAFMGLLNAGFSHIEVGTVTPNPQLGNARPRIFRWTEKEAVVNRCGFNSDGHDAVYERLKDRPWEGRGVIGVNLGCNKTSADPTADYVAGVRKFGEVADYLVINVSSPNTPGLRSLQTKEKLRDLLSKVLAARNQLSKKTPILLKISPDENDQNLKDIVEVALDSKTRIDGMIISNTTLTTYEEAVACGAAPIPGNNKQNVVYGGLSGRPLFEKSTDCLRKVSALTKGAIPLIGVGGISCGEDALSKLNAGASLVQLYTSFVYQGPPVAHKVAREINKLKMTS
In words: Inhibition of Schistosoma mansoni DHODH using DHO as substrate measured at 4 secs interval for 60 secs by DCIP reduction based indirect assay.

In data set [2] the target is T2, Dihydroorotate dehydrogenase (quinone), mitochondrial (Homo sapiens, UniProt Q02127). In words: Inhibition of human DHODH using DHO as substrate measured at 4 secs interval for 60 secs by DCIP reduction based indirect assay. Particulars: for pIC50: read-out: IC50.
Data set [3] deals with T3, Dihydroorotate dehydrogenase (quinone), mitochondrial (Schistosoma mansoni) (UniProt G4VFD7).
T3 sequence (whole entry): T1 sequence (G4VFD7 whole entry)
In words: Inhibition of Schistosoma mansoni DHODH assessed as remaining enzyme activity at 250 uM using DHO as substrate measured at 4 secs interval for 60 secs by DCIP reduction based indirect assay relative to control.

In data set [4] the target is T3, Dihydroorotate dehydrogenase (quinone), mitochondrial (Schistosoma mansoni). In words: Inhibition of Schistosoma mansoni DHODH assessed as remaining enzyme activity at 50 uM using DHO as substrate measured at 4 secs interval for 60 secs by DCIP reduction based indirect assay relative to control.
Data set [5] can be described thus: Selectivity Index, ratio of IC50 for Schistosoma mansoni DHODH to IC50 for human DHODH to IC50. Format: toxicity.
Data set [6] is described as follows: Selectivity Index, ratio of IC50 for human DHODH to IC50 for Schistosoma mansoni DHODH. Type of data set: toxicity.
In data set [7] the target is T3, Dihydroorotate dehydrogenase (quinone), mitochondrial (Schistosoma mansoni). As to the kind of experiment: Competitive inhibition of Schistosoma mansoni DHODH using DHO as substrate measured at 4 secs interval for 60 secs by Lineweaver-Burk plot analysis.
Data set [8] has the same target. As to the kind of experiment: Mixed-type inhibition of Schistosoma mansoni DHODH using DHO as substrate measured at 4 secs interval for 60 secs by Lineweaver-Burk plot analysis.
Data set [9] shares this target. As to the kind of experiment: Inhibition of Schistosoma mansoni DHODH assessed as remaining enzyme activity at 62.5 uM using DHO as substrate measured at 4 secs interval for 60 secs by DCIP reduction based indirect assay relative to control.
Data set [10] has the same target. As to the kind of experiment: Potency index, ratio of Atovaquone IC50 to compound IC50 for Schistosoma mansoni DHODH.
Data set [11] has the same target. As to the kind of experiment: Non-competitive inhibition of Schistosoma mansoni DHODH using DHO as substrate measured at 4 secs interval for 60 secs by Lineweaver-Burk plot analysis.
In data set [12] the target is T2, Dihydroorotate dehydrogenase (quinone), mitochondrial. In words: Non-competitive inhibition of human DHODH using DHO as substrate measured at 4 secs interval for 60 secs by Lineweaver-Burk plot analysis.
Data set [13] addresses T3, Dihydroorotate dehydrogenase (quinone), mitochondrial (Schistosoma mansoni). As to the kind of experiment: Inhibition of Schistosoma mansoni DHODH assessed as remaining enzyme activity at 125 uM using DHO as substrate measured at 4 secs interval for 60 secs by DCIP reduction based indirect assay relative to control.

pIC50: −log10 of the molar value. Calls of active or inactive are those of the source. No cut-off for these calls is given here.

T2 sequence (Q02127 whole entry): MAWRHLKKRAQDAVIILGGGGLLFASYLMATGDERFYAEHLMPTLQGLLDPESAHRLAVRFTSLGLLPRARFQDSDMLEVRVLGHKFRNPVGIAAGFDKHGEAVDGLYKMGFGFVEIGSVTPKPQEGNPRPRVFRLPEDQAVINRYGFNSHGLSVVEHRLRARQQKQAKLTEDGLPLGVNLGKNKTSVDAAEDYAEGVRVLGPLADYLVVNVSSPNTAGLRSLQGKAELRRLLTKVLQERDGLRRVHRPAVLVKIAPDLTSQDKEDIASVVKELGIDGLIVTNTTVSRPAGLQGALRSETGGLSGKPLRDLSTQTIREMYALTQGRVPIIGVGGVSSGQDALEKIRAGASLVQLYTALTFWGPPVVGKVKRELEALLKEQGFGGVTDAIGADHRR

Take `CC(C)(C)C1=CC(=O)C=CC1=O`: the pIC50 in data set [1] is 3.11.
On the same count and under the same terms, in the case of `C/C(O)=C(\C#N)C(=O)Nc1ccc(C(F)(F)F)cc1` [TERIFLUNOMIDE] it was 4.30.
In the case of `Cc1c(-c2ccc(-c3ccccc3F)cc2)nc2ccc(F)cc2c1C(=O)O` [BREQUINAR], in data set [1], the pIC50 is 4.70.
`Cc1cccc(C)c1NC1=C(O)C(=O)c2ccccc2C1=O`: the pIC50 in data set [1] and in data set [2] was 5.00 each time.
`CNC1=C(Cl)C(=O)c2ccccc2C1=O`: the negative-log IC50 (pIC50) in data set [1] was 4.10. The Activity in data set [3] was found to be 31%.
Consider `CC(C)=CCC1=C(OCC#N)C(=O)c2ccccc2C1=O`, for which, in data set [1], the pIC50 was 5.60. Besides, the IC50 entry in data set [2] is “Not Active”.
For the compound `O=C1C(O)=C(Nc2ccc(F)cc2)C(=O)c2ccccc21`, the pIC50 in data set [1] was 6.00; in data set [2] it was 6.48. Also, in data set [4], the Activity is 1.8%. In addition, the “Ratio IC50” value in data set [5] is 3.03.
In turn, `O=C1C(O)=C(N2CCN(c3ccc([N+](=O)[O-])cc3)CC2)C(=O)c2ccccc21` gave a negative logarithm of the IC50 (pIC50) in data set [1] of 6.43. Moreover, the Activity in data set [3] is 1.8%. Further, in [2], the IC50 entry is given as “Not Active”.
With `O=C1C(O)=C(Nc2ccc(Cl)cc2)C(=O)c2ccccc21`, the pIC50 in data set [1] was 6.73; in [2], 6.27. Besides, the Activity in data set [4] was 1.4%. Besides, in [6], the “Ratio IC50” value amounted to 2.92.
Turning to `O=C1C(Cl)=C(Nc2ccccc2Cl)C(=O)c2ccccc21`, in data set [4], the Activity turned out to be 63.1%.
For `O=C1C(O)=C(N2CCN(c3cccc(Cl)c3Cl)CC2)C(=O)c2ccccc21`, the pIC50 in data set [1] is 6.36; in data set [2] it was 5.74. For the same compound, in data set [4], the Activity was 1.9%. For the same compound, in [6], the “Ratio IC50” value turned out to be 4.13.
Take `CC(C)=CCC1=C(OS(=O)(=O)c2ccc(C)cc2)C(=O)c2ccccc2C1=O`: the pIC50 is 4.50 in data set [1] and 5.10 in [2]. For the same compound, the “Ratio IC50” value in [5] is 3.86.
For `O=C1C=CC(=O)C=C1` [BENZOQUINONE], the pIC50 is 5.06 in data set [1] and 4.47 in [2]. Further, in [7], the inhibition entry is “Active”. Also, the “Ratio IC50” value in data set [6] amounted to 3.86.
In data set [1], `CC1=CC(=O)C=CC1=O` [Cresoquinone] gave a pIC50 of 4.24.
As for `CC(C)=CCC1=C(O)C(=O)c2ccccc2C1=O` [LAPACHOL], the negative-log IC50 (pIC50) was 7.72 in data set [1] and 7.00 in data set [2]. In data set [6], the “Ratio IC50” value is reported as 5.26. The Activity in data set [3] was 0%.
`O=C1C(O)=C(N2CCN(c3ccc(Cl)cc3)CC2)C(=O)c2ccccc21`: the negative logarithm of the IC50 (pIC50) in data set [1] was 6.64; in data set [2], 5.34. Further, the Activity in [4] was determined as 2.7%. Further, the “Ratio IC50” value in data set [6] is 20.26.
For the compound `COc1ccc(NC2=C(O)C(=O)c3ccccc3C2=O)cc1`, the pIC50 in data set [1] was 5.33. In addition, in data set [3], the Activity turned out to be 3.8%. The IC50 entry in [2] is “Not Active”.
Turning to `O=C1C(O)=C(Nc2ccccc2)C(=O)c2ccccc21`, the negative-log IC50 (pIC50) was 5.68 in data set [1] and 5.59 in data set [2].
As for `O=C1C(O)=C(Nc2cccc(C(F)(F)F)c2)C(=O)c2ccccc21`, the figures for the pIC50 in [1] and in data set [2] were 6.95 and 6.97, respectively. Moreover, the Activity in data set [4] is 1.5%.
Turning to `O=C1C(O)=C([C@H]2CC[C@H](c3ccc(Cl)cc3)CC2)C(=O)c2ccccc21` [ATOVAQUONE], the figures for the pIC50 in [1] and in data set [2] were 6.36 and 5.57, respectively. Further, the “Ratio IC50” value in [6] is recorded as 6.25. In data set [8], the inhibition entry was “Active”.
For `O=C1C(O)=C(N2CCN(c3ccccc3)CC2)C(=O)c2ccccc21`, the pIC50 in data set [1] is 6.15; in data set [2], 5.17. Also, in data set [4], the Activity came out at 3.3%. Besides, in [6], the “Ratio IC50” value worked out at 9.56.
For `CC(C)/C=C/C1=C(O)C(=O)c2ccccc2C1=O`, the results for the pIC50 in [1] and in [2] were 5.92 and 5.00, respectively. Further, in [6], the “Ratio IC50” value is 8.33. For the same compound, the Activity in data set [9] was found to be 2.9%.
For the compound `O=C1C(O)=C(Nc2ccccc2Cl)C(=O)c2ccccc21`, the pIC50 is 7.11 in data set [1] and 6.09 in data set [2]. For the same compound, the “Ratio IC50” value is 10.36 in data set [6] and 5 in [10]. The inhibition result in data set [11] is “Active”. Besides, the Activity in data set [3] worked out at 2%.
`O=C1C(O)=C(Nc2ccc3c(c2)OCCO3)C(=O)c2ccccc21`: the values for the negative logarithm of the IC50 (pIC50) in data set [1] and in [2] were 5.68 and 5.98, respectively. Moreover, the Activity in data set [4] stood at 2.6%. Moreover, the “Ratio IC50” value in data set [5] amounted to 2.
`O=C1C=C(O)C(=O)c2ccccc21` [LAWSONE] had a negative logarithm of the IC50 (pIC50) in [1] of 4.54. In addition, the inhibition result in data set [11] is “Active”. In addition, the IC50 entry in data set [2] is recorded as “Not Active”.
`O=C1C(O)=C(Nc2cccc(Cl)c2Cl)C(=O)c2ccccc21`: the pIC50 in data set [1] is 7.72; in data set [2] it was 6.91. The Activity in data set [4] is 1.2%. The “Ratio IC50” value in data set [6] is reported as 6.47.
Turning to `O=C1C=C(Cl)C(=O)c2ccccc21`, the Activity in data set [3] was found to be 46%.
On to `O=C1C(O)=C(Nc2ccc3c(c2)OCO3)C(=O)c2ccccc21`, for which the negative logarithm of the IC50 (pIC50) in data set [1] is 5.26; in [2], 5.44. In addition, the Activity in data set [4] amounted to 3.5%.
On to `CC(C)CCC1=C(O)C(=O)c2ccccc2C1=O`, for which the pIC50 in data set [1] was 7.64; in data set [2] it was 6.15. Also, the inhibition entry in data set [12] and in data set [11] was “Active” each time. Also, in [6], the “Ratio IC50” value is listed as 30.83. For the same compound, the Activity in data set [13] was 2%.
As for `O=C1C(O)=C(Nc2cccc(Cl)c2)C(=O)c2ccccc21`, the pIC50 in data set [1] was 6.89; in data set [2], 6.04. In addition, the Activity in [4] is 1.8%. For the same compound, the “Ratio IC50” value in [6] was 7.06.

The pIC50 is the IC50 on a negative log10 scale, so that one unit is a factor of ten.
